Where two headings read alike, the source gives them in different places.
Experiments:
[1] = tested on: major human CYP isoforms (CYP1A2, 2C9, 2C19, 2D6 and 3A); assay: CYP inhibition in human liver microsomes, summary over the isoform panel; conditions: HLM + NADPH
CYP3A [2] = biological target: T1, CYP3A (Homo sapiens, UniProt P08684); conditions: microsomes
CYP2D6 [3] = biological target: T2, CYP2D6 (Homo sapiens, UniProt P10635); conditions: microsomes
CYP2C19 [4] = biological target: T3, CYP2C19 (Homo sapiens, UniProt P33261); conditions: microsomes
T3 sequence (P33261 whole entry): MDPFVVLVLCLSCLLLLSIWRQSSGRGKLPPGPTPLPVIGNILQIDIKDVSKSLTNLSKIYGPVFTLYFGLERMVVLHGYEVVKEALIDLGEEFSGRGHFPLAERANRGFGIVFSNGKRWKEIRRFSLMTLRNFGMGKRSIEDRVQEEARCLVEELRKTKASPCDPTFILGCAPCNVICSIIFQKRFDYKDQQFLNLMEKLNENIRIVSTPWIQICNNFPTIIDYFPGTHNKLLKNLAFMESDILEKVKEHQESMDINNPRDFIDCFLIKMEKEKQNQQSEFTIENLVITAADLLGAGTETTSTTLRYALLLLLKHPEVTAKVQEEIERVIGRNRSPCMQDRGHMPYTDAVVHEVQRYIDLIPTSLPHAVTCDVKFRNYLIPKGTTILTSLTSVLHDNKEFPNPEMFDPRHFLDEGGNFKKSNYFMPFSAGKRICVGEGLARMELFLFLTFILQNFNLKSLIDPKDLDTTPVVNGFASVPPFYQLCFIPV

CYP1A2 [5] = biological target: T4, CYP1A2 (Homo sapiens, UniProt P05177); conditions: microsomes
T4 sequence (P05177 1-516): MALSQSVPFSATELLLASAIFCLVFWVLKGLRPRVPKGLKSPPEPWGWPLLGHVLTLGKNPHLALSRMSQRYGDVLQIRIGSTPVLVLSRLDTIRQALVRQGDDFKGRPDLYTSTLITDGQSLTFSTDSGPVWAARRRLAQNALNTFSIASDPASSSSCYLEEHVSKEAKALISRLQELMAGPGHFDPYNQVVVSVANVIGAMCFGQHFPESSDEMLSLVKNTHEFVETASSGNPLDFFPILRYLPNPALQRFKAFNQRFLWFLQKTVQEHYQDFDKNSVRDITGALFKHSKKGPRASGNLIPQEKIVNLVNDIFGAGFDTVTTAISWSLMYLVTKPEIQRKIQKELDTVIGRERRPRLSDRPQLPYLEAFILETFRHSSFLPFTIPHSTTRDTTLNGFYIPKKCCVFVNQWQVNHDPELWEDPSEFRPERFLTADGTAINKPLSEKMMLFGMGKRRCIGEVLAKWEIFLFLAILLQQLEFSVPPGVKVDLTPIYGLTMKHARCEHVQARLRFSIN

[6] = tested on: major human CYP isoforms (CYP1A2, 2C9, 2C19, 2D6 and 3A)
CYP2C9 [7] = biological target: T5, CYP2C9 (Homo sapiens, UniProt P11712); conditions: microsomes
T5 sequence (P11712 whole entry): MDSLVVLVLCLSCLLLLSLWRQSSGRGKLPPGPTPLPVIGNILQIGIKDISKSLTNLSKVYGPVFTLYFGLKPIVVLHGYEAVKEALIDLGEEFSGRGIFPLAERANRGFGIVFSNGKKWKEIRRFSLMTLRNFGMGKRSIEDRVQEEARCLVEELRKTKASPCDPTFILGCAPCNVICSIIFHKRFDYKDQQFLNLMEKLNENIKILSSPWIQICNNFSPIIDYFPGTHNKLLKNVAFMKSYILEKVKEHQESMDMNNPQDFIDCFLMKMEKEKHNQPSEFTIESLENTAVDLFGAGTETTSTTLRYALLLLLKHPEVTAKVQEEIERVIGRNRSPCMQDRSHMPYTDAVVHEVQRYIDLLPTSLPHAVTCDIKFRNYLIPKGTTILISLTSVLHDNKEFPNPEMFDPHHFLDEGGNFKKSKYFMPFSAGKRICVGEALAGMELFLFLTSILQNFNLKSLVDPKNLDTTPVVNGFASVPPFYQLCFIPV

CYP3A [8] = biological target: T1, CYP3A; conditions: microsomes; remark: listed apart in the source
CYP2C19 [9] = biological target: T3, CYP2C19; assay: CYP inhibition in human liver microsomes, CYP2C19 ((S)-mephenytoin probe); conditions: for Activation of CYP2C19 observed at concentrations up to: HLM + NADPH, (S)-mephenytoin probe
[10] = tested on: major human CYP isoforms (CYP1A2, 2C9, 2C19, 2D6 and 3A); assay: in vitro; conditions: microsomes
CYP1A2 [11] = biological target: T4, CYP1A2; assay: CYP inhibition in human liver microsomes, CYP1A2 (tacrine probe)
CYP2C9 [12] = biological target: T5, CYP2C9; assay: CYP inhibition in human liver microsomes, CYP2C9 ((S)-warfarin probe); conditions: for Activation of CYP2C9 observed at concentrations up to: HLM + NADPH, (S)-warfarin probe
CYP2D6 [13] = biological target: T2, CYP2D6; assay: CYP inhibition in human liver microsomes, CYP2D6 (dextromethorphan probe)
CYP3A [14] = biological target: T1, CYP3A; assay: in vitro; conditions: microsomes
CYP3A [15] = biological target: T1, CYP3A; assay: in vitro; conditions: microsomes; remark: listed apart in the source
CYP1A2 [16] = biological target: T4, CYP1A2; assay: in vitro; conditions: microsomes
[17] = tested on: ticlopidine metabolism in human liver microsomes (TSOD and TSO-NEM formation); assay: Trapping of reactive metabolites of ticlopidine with NEM in human liver microsomes; format: in vitro ADME; conditions: ticlopidine 1 μM
Experimental: Ticlopidine (1 μM) was incubated at 37 °C for 15 min in the presence or absence of various concentrations of NEM with HLM (0.5 mg/mL), NADPH (1 mM) and KPi (0.1 M), in a final incubation volume of 100 µL. Assay conditions were optimized with regard to protein concentration and incubation time, based on linear formation of TSOD. The incubations were performed over a concentration range of NEM (0.0007–40 mM) including a vehicle control, for a total of twelve incubations. A 50 µL sample was withdrawn at 15 min and the reactions were quenched in 100 µL of 0.1% formic acid in ACN containing an IS. Samples were centrifuged at 2000× g for 10 min and supernatants (75 µL) were removed and diluted with 0.1% formic acid in water (150 µL). The prepared samples were analyzed by LC-MS/MS for ticlopidine, N-ethylmaleimide-trapped S-oxide (TSO-NEM) and ticlopidine S-oxide dimer (TSOD). Peak areas were normalized to an IS, and the percentage of metabolite formed at the end of the incubation was calculated and compared to the incubation containing the highest peak area to IS ratio of metabolite (set at 100%).
The prepared samples were analyzed by LC-MS/MS using a Cohesive LX-2 Transcend Multiplexing system with Agilent 1100 series high pressure liquid chromatography (HPLC) pumps from Agilent Technologies (Santa Clara, CA, USA) and an HTS PAL autosampler from CTC Analytics (Carrboro, NC, USA) connected to a Sciex API5500-QTrap mass spectrometer with a Turbo V™ ion source (Foster City, CA, USA). A Phenomenex Kinetex Phenyl-Hexyl HPLC column (30 × 2.1 mm, 2.6 µ) was used with 0.1% formic acid in water (mobile phase A) or 0.1% formic acid in ACN (mobile phase B) flowing at 0.55 mL/min in the following gradient: mobile phase B was held at 1% for 0.4 min, increased to 5% over 0.2 min, to 55% over 6.7 min and to 95% over 0.5 min, where it was held for 0.75 min prior to re-equilibration at 1%. LC-MS/MS multiple reaction (MRM) transitions for the CYP inhibition assay were reported previously. […]

T1 sequence (P08684 2-503 limits assumed): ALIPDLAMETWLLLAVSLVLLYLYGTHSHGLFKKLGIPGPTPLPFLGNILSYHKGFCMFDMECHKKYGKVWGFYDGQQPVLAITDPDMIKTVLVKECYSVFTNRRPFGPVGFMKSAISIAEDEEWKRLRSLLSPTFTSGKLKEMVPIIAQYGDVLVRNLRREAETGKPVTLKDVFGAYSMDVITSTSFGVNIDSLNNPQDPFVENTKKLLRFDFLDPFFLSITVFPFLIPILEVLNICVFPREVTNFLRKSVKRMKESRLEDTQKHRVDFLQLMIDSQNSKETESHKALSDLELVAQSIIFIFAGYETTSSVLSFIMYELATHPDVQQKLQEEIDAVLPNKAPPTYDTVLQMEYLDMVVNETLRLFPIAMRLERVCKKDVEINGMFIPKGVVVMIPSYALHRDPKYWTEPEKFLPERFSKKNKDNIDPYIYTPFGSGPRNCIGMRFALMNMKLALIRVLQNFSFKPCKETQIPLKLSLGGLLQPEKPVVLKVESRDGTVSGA
T2 sequence (P10635 whole entry): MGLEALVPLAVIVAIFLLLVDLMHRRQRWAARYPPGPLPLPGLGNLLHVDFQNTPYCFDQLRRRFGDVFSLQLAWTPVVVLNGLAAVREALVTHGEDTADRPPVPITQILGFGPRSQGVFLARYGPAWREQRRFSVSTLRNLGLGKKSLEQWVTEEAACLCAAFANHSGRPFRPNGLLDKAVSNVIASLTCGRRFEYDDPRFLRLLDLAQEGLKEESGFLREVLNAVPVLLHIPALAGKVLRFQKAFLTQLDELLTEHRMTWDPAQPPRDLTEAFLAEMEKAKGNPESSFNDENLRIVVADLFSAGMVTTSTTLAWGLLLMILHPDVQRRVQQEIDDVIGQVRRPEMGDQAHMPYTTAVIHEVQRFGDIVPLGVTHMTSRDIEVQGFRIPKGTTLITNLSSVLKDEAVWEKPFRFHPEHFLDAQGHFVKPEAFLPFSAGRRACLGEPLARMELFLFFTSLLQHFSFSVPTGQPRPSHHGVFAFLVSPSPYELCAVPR

CC1(C)CC(=O)CC(=O)C1 [5,5-dimethyl-1,3-cyclohexanedione]
Inhibition of CYP isoforms at concentrations tested [1]: did not inhibit CYP isoforms at concentrations tested

O=[As][O-].[Na+] [Arsenite, sodium arsenite]
IC50 (CYP3A [2]): > 10 mM
IC50 (CYP2D6 [3]): > 10 mM
IC50 (CYP2C19 [4]): > 10 mM
IC50 (CYP1A2 [5]): > 10 mM
Concentration up to which no CYP inhibition was shown [6]: up to 10 mM
Inhibition of CYP isoforms at concentrations tested [6]: did not inhibit CYP isoforms at concentrations tested
IC50 (CYP2C9 [7]): > 10 mM
IC50 (CYP3A [8]): > 10 mM

C1COCCN1 [Morpholine]
IC50 (CYP2C19 [9]): 14 mM
IC50 [10]: 7.9 to 16 mM
Activation of CYP1A2 (CYP1A2 [5]): activation was observed
IC50 (CYP1A2 [11]): > 100 mM
IC50 (CYP2C9 [12]): 7.9 mM
IC50 (CYP2D6 [13]): 13 mM

CC(=O)N[C@@H](CCCCN)C(=O)O [N-Acetyl-lysine1, N-Acetyl-lysine]
IC50 (CYP3A [14]): > 50 mM
IC50 (CYP3A [15]): > 50 mM
Inhibition of CYP isoforms at concentrations tested [1]: did not inhibit CYP isoforms at concentrations tested
Concentration up to which no CYP inhibition was shown ([1]; all isoforms tested): up to 50 mM

CCN1C(=O)C=CC1=O [N-Ethylmaleimide (NEM), N-Ethylmaleimide]
IC50 (CYP1A2 [16]): 0.12 mM
IC50 (CYP2C19 [9]): 2.9 mM
Activation of CYP2C19 observed at concentrations up to (CYP2C19 [9]): up to 0.4 mM
NEM concentration at and above which TSO-NEM formation rapidly decreases ([17]; HLM 0.5 mg/mL, NADPH, 15 min): ≥ 165 µM
NEM concentrations with initial increase in TSOD formation ([17]; HLM 0.5 mg/mL, NADPH, 15 min): 0.7 to 18.3 µM
Response of TSO-NEM formation to increasing NEM concentration ([17]; NEM 0.007–40 mM): bell-shaped response curve
IC50 (CYP2C9 [12]): 3.2 mM
Activation of CYP2C9 observed at concentrations up to (CYP2C9 [12]): up to 1 mM
IC50 (CYP2D6 [13]): > 40 mM

CN1C(=O)C=CC1=O [N-Methylmaleimide]
Activation of CYP2C19 observed at concentrations up to (CYP2C19 [9]): up to 0.2 mM
Activation of CYP2C9 observed at concentrations up to (CYP2C9 [12]): up to 0.2 mM

CN1CCCCC1 [N-Methylpiperidine]
Activation of CYP1A2 observed at concentrations up to (CYP1A2 [11]; HLM + NADPH, tacrine probe): up to 12.5 mM

O=C(O)CCP(CCC(=O)O)CCC(=O)O [Tris(2-carboxyethyl) phosphine (TCEP), Tris(2-carboxyethyl) phosphine]
Activation of CYP2D6 (CYP2D6 [13]; HLM + NADPH, dextromethorphan probe): activation was observed
